Results from patent publication US20250289804A1, “SUBSTITUTED INDOLE COMPOUNDS AND METHODS OF USE THEREOF” (NOVARTIS PHARMA AG, priority 2021, published 2025).

Columns and labels:
[1] = tested on: MAC formation in normal human serum; experiment: Human serum MAC formation assay (zymosan-coated plates, 50% normal human serum); conditions: 50% normal human serum with EGTA, 37° C. 30 minutes
Procedure, shortened: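 Compounds preincubated 15 min at RT with 50% normal human serum in gelatin buffer plus 20 mM EGTA, then complement activated 30 min at 37 °C on zymosan-coated plates. C9 neoepitope ELISA, fluorogenic readout. Percent inhibition vs EDTA-serum baseline and EGTA-serum maximum; IC50 from 4-parameter fit of 10-point curves.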

human C3bBb = human C3bBb (Homo sapiens (Human), UniProt P00751); experiment: Human C3bBb enzyme assay (C3a generation from C3, ELISA); format: biochemical; conditions: starred values: assay conducted with 1 nM C3b:Bb enzyme; read-out: Human C3b:Bb IC50 Avg
Procedure, shortened: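 C3bBb was preformed from human C3b, CFB and CFD at 1 μM each (30 min, RT) in PBS pH 7.4 with 100 μM NiCl2 and 0.05% CHAPS. Then 3 nM complex with 1 μM human C3 was incubated with compound for 1 h at RT. C3a was quantified by ELISA against a standard curve, and IC50 came from a 10-point 4-parameter fit.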

C3G patients = conditions: after 12 weeks of treatment; cited from earlier work

human C3bBb, sequence (P00751 260-764): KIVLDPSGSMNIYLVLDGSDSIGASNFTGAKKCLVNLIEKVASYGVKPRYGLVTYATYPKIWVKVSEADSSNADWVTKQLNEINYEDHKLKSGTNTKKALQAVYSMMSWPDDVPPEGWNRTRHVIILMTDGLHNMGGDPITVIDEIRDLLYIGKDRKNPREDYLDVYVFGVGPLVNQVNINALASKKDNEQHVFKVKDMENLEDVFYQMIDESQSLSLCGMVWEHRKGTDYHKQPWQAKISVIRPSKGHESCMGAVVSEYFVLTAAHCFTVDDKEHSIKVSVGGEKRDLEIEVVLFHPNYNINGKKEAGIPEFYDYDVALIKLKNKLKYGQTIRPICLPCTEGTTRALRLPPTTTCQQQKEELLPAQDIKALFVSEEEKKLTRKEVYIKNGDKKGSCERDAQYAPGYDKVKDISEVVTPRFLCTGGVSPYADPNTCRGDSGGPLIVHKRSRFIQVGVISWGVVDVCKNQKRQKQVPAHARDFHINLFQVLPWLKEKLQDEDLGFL
human C3bBb, sequence (P01024 23-667 partner): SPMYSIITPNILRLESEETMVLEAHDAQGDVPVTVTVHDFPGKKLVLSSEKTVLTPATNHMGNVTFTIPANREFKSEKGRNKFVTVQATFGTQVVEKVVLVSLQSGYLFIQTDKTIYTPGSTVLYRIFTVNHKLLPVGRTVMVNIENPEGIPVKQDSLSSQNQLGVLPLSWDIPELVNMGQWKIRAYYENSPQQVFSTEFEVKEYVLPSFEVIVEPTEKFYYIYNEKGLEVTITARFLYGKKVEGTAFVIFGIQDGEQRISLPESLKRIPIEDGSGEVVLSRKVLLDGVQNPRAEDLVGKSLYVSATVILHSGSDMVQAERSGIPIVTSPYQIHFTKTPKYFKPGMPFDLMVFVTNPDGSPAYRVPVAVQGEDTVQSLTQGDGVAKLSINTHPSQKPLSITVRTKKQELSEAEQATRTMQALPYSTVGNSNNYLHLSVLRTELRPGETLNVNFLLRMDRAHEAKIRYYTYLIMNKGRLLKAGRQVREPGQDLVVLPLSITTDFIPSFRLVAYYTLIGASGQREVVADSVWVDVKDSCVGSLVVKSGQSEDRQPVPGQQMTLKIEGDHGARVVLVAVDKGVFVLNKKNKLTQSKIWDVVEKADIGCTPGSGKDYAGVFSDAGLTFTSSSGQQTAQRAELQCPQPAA
human C3bBb, sequence (P01024 749-1663 partner): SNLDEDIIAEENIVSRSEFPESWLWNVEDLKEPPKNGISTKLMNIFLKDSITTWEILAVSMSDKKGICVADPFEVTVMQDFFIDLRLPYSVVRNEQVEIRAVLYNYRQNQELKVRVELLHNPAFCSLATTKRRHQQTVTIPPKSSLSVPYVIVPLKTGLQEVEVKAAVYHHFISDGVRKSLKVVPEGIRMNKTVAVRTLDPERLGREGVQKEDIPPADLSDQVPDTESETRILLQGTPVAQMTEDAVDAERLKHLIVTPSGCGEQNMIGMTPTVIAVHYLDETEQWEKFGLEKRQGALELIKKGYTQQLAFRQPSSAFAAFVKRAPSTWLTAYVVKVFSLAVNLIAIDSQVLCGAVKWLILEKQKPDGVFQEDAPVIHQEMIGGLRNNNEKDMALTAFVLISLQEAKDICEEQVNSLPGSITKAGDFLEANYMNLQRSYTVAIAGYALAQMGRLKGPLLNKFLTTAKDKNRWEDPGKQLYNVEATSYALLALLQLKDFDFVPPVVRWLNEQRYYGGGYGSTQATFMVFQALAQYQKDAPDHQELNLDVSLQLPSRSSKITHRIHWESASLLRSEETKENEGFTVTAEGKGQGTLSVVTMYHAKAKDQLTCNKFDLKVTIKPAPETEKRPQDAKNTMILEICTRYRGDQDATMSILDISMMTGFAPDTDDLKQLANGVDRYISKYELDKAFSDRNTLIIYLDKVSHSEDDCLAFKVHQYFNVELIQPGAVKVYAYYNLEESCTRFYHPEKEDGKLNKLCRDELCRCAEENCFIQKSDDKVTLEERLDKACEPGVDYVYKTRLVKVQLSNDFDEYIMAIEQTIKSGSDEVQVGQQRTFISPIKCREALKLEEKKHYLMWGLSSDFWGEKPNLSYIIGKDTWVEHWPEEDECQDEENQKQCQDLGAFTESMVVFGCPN

SMILES	IC50 [1] [nM]	IC50 (human C3bBb) [nM]	efficacy (proteinuria) (C3G patients)
COc1cc(C)c2[nH]ccc2c1CN1CCC2(C[C@H]1c1ccc(C(=O)O)cc1)CC(F)(F)C2 [Example 45, (S)-4-(2,2-difluoro-7-((5-methoxy-7-methyl-1H-indol-4-yl)methyl)-7-azaspiro[3.5]nonan-6-yl)benzoic acid]	< 100	< 10	
COc1cc(C)c2[nH]ccc2c1CN1CCC2(C[C@H]1c1ccc(C(=O)O)c(F)c1)CC(F)(F)C2 [Example 50, (S)-4-(2,2-difluoro-7-((5-methoxy-7-methyl-1H-indol-4-yl)methyl)-7-azaspiro[3.5]nonan-6-yl)-2-fluorobenzoic acid]	< 100	< 10	
COc1cc(C)c2[nH]ccc2c1CN1CCC2(C[C@H]1c1ccc(C(=O)O)cc1)CC1(CC1)C2 [Example 51, (S)-4-(8-((5-methoxy-7-methyl-1H-indol-4-yl)methyl)-8-azadispiro[2.1.5^5.1^3]undecan-7-yl)benzoic acid]	< 100	< 10	
COc1cc(C)c2[nH]cc(Cl)c2c1CN1CCC2(C[C@H]1c1ccc(C(=O)O)cc1)CC(F)(F)C2 [Example 53, (S)-4-(7-((3-chloro-5-methoxy-7-methyl-1H-indol-4-yl)methyl)-2,2-difluoro-7-azaspiro[3.5]nonan-6-yl)benzoic acid]	< 100	< 10	
COc1cc(C)c2[nH]cc(F)c2c1CN1CCC2(C[C@H]1c1ccc(C(=O)O)cc1)CC(F)(F)C2 [Example 54, (S)-4-(2,2-difluoro-7-((3-fluoro-5-methoxy-7-methyl-1H-indol-4-yl)methyl)-7-azaspiro[3.5]nonan-6-yl)benzoic acid]	< 100	< 10	
COc1cc(C)c2[nH]ccc2c1CN1CCC2(CC(=O)C2)C[C@H]1c1ccc(C(=O)O)cc1 [Example 58, (S)-4-(7-((5-methoxy-7-methyl-1H-indol-4-yl)methyl)-2-oxo-7-azaspiro[3.5]nonan-6-yl)benzoic acid]	100 to 200	< 10	
COc1cc(C)c2[nH]ccc2c1CN1CC[C@]2(C[C@H]1c1ccc(C(=O)O)cc1)C[C@@H](F)C2 [Example 61, 4-((2S,4r,6S)-2-fluoro-7-((5-methoxy-7-methyl-1H-indol-4-yl)methyl)-7-azaspiro[3.5]nonan-6-yl)benzoic acid and 4-((2R,4s,6S)-2-fluoro-7-((5-methoxy-7-methyl-1H-indol-4-yl)methyl)-7-azaspiro[3.5]nonan-6-yl)benzoic acid]	< 100	< 10	
COc1cc(C)c2[nH]ccc2c1CN1CCN(CC(F)(F)F)C[C@H]1c1ccc(C(=O)O)cc1 [Example 65, (R)-4-(1-((5-methoxy-7-methyl-1H-indol-4-yl)methyl)-4-(2,2,2-trifluoroethyl)piperazin-2-yl)benzoic acid]	200 to 300	10 to 25	
COc1cc(C)c2[nH]ccc2c1CN1CCN(CC(F)F)C[C@H]1c1ccc(C(=O)O)cc1 [Example 66, (R)-4-(4-(2,2-difluoroethyl)-1-((5-methoxy-7-methyl-1H-indol-4-yl)methyl)piperazin-2-yl)benzoic acid]	100 to 200	25 to 50	
COc1cc(C)c2[nH]ccc2c1CN1CCN(CC2CC(F)(F)C2)C[C@H]1c1ccc(C(=O)O)cc1 [Example 67, (R)-4-(4-((3,3-difluorocyclobutyl)methyl)-1-((5-methoxy-7-methyl-1H-indol-4-yl)methyl)piperazin-2-yl)benzoic acid]	300 to 500	50 to 100	
COc1cc(C)c2[nH]ccc2c1CN1CCN(CCC(F)(F)F)C[C@H]1c1ccc(C(=O)O)cc1 [Example 68, (R)-4-(1-((5-methoxy-7-methyl-1H-indol-4-yl)methyl)-4-(3,3,3-trifluoropropyl)piperazin-2-yl)benzoic acid]	100 to 200	< 10	
COc1cc(C)c2[nH]ccc2c1CN1CCN(CC2(F)COC2)C[C@H]1c1ccc(C(=O)O)cc1 [Example 69, (R)-4-(4-((3-fluorooxetan-3-yl)methyl)-1-((5-methoxy-7-methyl-1H-indol-4-yl)methyl)piperazin-2-yl)benzoic acid]	100 to 200	50 to 100	
COc1cc(C)c2[nH]ccc2c1CN1CCN(CCF)C[C@H]1c1ccc(C(=O)O)cc1 [Example 70, (R)-4-(4-(2-fluoroethyl)-1-((5-methoxy-7-methyl-1H-indol-4-yl)methyl)piperazin-2-yl)benzoic acid]	200 to 300	25 to 50	
COc1cc(C)c2[nH]ccc2c1CN1CC[C@H](N2CC(OC(F)(F)F)C2)C[C@H]1c1ccc(C(=O)O)cc1 [Example 72, 4-((2S,4S)-1-((5-methoxy-7-methyl-1H-indol-4-yl)methyl)-4-(3-(trifluoromethoxy)azetidin-1-yl)piperidin-2-yl)benzoic acid]	200 to 300	25 to 50	
COc1cc(C)c2[nH]ccc2c1CN1CC[C@H](N2CC(C#N)C2)C[C@H]1c1ccc(C(=O)O)cc1 [Example 73, 4-((2S,4S)-4-(3-cyanoazetidin-1-yl)-1-((5-methoxy-7-methyl-1H-indol-4-yl)methyl)piperidin-2-yl)benzoic acid]	100 to 200	< 10	
COc1cc(C)c2[nH]ccc2c1CN1CC[C@H](N2CC(C(F)F)C2)C[C@H]1c1ccc(C(=O)O)cc1 [Example 74, 4-((2S,4S)-4-(3-(difluoromethyl)azetidin-1-yl)-1-((5-methoxy-7-methyl-1H-indol-4-yl)methyl)piperidin-2-yl)benzoic acid]	100 to 200	< 10	
COc1cc(C)c2[nH]cc(Cl)c2c1CN1CC[C@H](N2CC(C(F)(F)F)C2)C[C@H]1c1ccc(C(=O)O)cc1 [Example 75, 4-((2S,4S)-1-((3-chloro-5-methoxy-7-methyl-1H-indol-4-yl)methyl)-4-(3-(trifluoromethyl)azetidin-1-yl)piperidin-2-yl)benzoic acid]	200 to 300	10 to 25	
Cc1cc(C2CC2)c(CN2CC[C@H](N3CC(C(F)(F)F)C3)C[C@H]2c2ccc(C(=O)O)cc2)c2cc[nH]c12 [Example 76, 4-((2S,4S)-1-((5-cyclopropyl-7-methyl-1H-indol-4-yl)methyl)-4-(3-(trifluoromethyl)azetidin-1-yl)piperidin-2-yl)benzoic acid]	100 to 200	< 10	
Cc1cc(C2CC2)c(CN2CC[C@H](N3CC(C#N)C3)C[C@H]2c2ccc(C(=O)O)cc2)c2cc[nH]c12 [Example 77, 4-((2S,4S)-4-(3-cyanoazetidin-1-yl)-1-((5-cyclopropyl-7-methyl-1H-indol-4-yl)methyl)piperidin-2-yl)benzoic acid]	< 100	< 10	
Cc1cc(C2CC2)c(CN2CC[C@H](N3CC4(CC4)C3)C[C@H]2c2ccc(C(=O)O)cc2)c2cc[nH]c12 [Example 78, 4-((2S,4S)-1-((5-cyclopropyl-7-methyl-1H-indol-4-yl)methyl)-4-(5-azaspiro[2.3]hexan-5-yl)piperidin-2-yl)benzoic acid]	100 to 200	25 to 50	
COc1cc(C)c2[nH]ccc2c1CN1CC[C@H](N2CC(S(C)(=O)=O)C2)C[C@H]1c1ccc(C(=O)O)cc1 [Example 79, 4-((2S,4S)-1-((5-methoxy-7-methyl-1H-indol-4-yl)methyl)-4-(3-(methylsulfonyl)azetidin-1-yl)piperidin-2-yl)benzoic acid]	100 to 200	50 to 100	
COc1cc(C)c2[nH]ccc2c1CN1CC[C@H](N2CC(F)C2)C[C@H]1c1ccc(C(=O)O)cc1 [Example 80, 4-((2S,4S)-4-(3-fluoroazetidin-1-yl)-1-((5-methoxy-7-methyl-1H-indol-4-yl)methyl)piperidin-2-yl)benzoic acid]	200 to 300	25 to 50	
COc1cc(C)c2[nH]ccc2c1CN1CC[C@H](N2CC(C(F)(F)F)C2)C[C@H]1c1ccc(C(=O)O)cc1 [Example 81, 4-((2S,4S)-1-((5-methoxy-7-methyl-1H-indol-4-yl)methyl)-4-(3-(trifluoromethyl)azetidin-1-yl)piperidin-2-yl)benzoic acid]	< 100	< 10	
COc1cc(C)c2[nH]ccc2c1CN1CC[C@H](OC2COC2)C[C@H]1c1ccc(C(=O)O)cc1 [Example 82, 4-((2S,4S)-1-((5-methoxy-7-methyl-1H-indol-4-yl)methyl)-4-(oxetan-3-yloxy)piperidin-2-yl)benzoic acid]	200 to 300	10 to 25	
COc1cc(C)c2[nH]ccc2c1CN1CC[C@H](OCC(F)F)C[C@H]1c1ccc(C(=O)O)cc1 [Example 83, 4-((2S,4S)-4-(2,2-difluoroethoxy)-1-((5-methoxy-7-methyl-1H-indol-4-yl)methyl)piperidin-2-yl)benzoic acid]	100 to 200	< 10	
COc1cc(C)c2[nH]ccc2c1CN1CC[C@H](OC2CCC2)C[C@H]1c1ccc(C(=O)O)cc1 [Example 84, 4-((2S,4S)-4-cyclobutoxy-1-((5-methoxy-7-methyl-1H-indol-4-yl)methyl)piperidin-2-yl)benzoic acid]	200 to 300	25 to 50	
COc1cc(C)c2[nH]ccc2c1CN1CC[C@H](OCC(F)(F)F)C[C@H]1c1ccc(C(=O)O)cc1 [Example 85, 4-((2S,4S)-1-((5-methoxy-7-methyl-1H-indol-4-yl)methyl)-4-(2,2,2-trifluoroethoxy)piperidin-2-yl)benzoic acid]	100 to 200	< 10	
CCO[C@H]1CCN(Cc2c(OC)cc(C)c3[nH]ccc23)[C@H](c2ccc(C(=O)O)cc2)C1 [iptacopan]			reduced proteinuria
